Laboratory results reported in patent US7696354B2, “Cephem compounds having broad antibacterial spectrum” (Shionogi & Co., Ltd., priority 2002, dated 2010).
Values after ≈ are worked out from the molar mass of the structure shown.

Legend:
Type in all cases: cell-based
[1] = tested on: E. cloacae SR4321 (Bla++); test: MIC by agar dilution method, E. cloacae SR4321 (Bla++); details: AmpC High-Production Cephem Resistant Strain; for MIC: Enterobacter cloacae, read-out: MIC (minimum inhibitory concentration) E. cloacae SR4321 (Bla++)
Description: (§1) The MIC (minimum inhibitory concentration) value of the invention compounds against various bacterial was determined by the usual agar dilution method.

P. aeruginosa SR24-12 = test: MIC by agar dilution method, P. aeruginosa SR24-12; details: for MIC: Pseudomonas aeruginosa, SR2412, AmpC High-Production Cephem Resistant Strain, read-out: MIC (minimum inhibitory concentration) P. aeruginosa SR24-12
Description: as §1

[2] = tested on: S. aureus SR3637 (H-MRSA); test: MIC by agar dilution method, S. aureus SR3637 (H-MRSA); details: Methicillin High-Resistant Staphylococcus Aureus; for MIC: MRSA, read-out: MIC (minimum inhibitory concentration) S. aureus SR3637 (H-MRSA)
Description: as §1

[3] = tested on: S. epidermidis SR25009 (MRSE); test: MIC by agar dilution method, S. epidermidis SR25009 (MRSE); details: Methicillin High-Resistant Staphylococcus Epidermidis; for MIC: MRSE, read-out: MIC (minimum inhibitory concentration) S. epidermidis SR25009 (MRSE)
Description: as §1

Row | MIC [1] [µg/mL] | MIC (P. aeruginosa SR24-12) [µg/mL] | MIC [2] [µg/mL] | MIC [3] [µg/mL] | MIC (minimum inhibitory concentration) E. cloacae SR4321 (Bla++) [1] [µg/mL] | MIC (minimum inhibitory concentration) P. aeruginosa SR24-12 (P. aeruginosa SR24-12; AmpC High-Production Cephem Resistant Strain) [µg/mL] | MIC (minimum inhibitory concentration) S. aureus SR3637 (H-MRSA) [2] [µg/mL] | MIC (minimum inhibitory concentration) S. epidermidis SR25009 (MRSE) [3] [µg/mL] | Structure (SMILES)
1 | 16 (≈ 27.5 µM) | 8 (≈ 13.8 µM) | 32 (≈ 55.1 µM) | 32 (≈ 55.1 µM) |  |  |  |  | CC(C)(O/N=C(\C(=O)NC1C(=O)N2C(C(=O)[O-])=C(C[n+]3ccccc3)CSC12)c1nc(N)sc1Cl)C(=O)O (stereo not drawn) [Ex. 3]
2 | 2 (≈ 2.94 µM) | 2 (≈ 2.94 µM) | 8 (≈ 11.8 µM) | 8 (≈ 11.8 µM) |  |  |  |  | C[C@H](N)Cn1c(N)nc2c1ccc[n+]2CC1=C(C(=O)[O-])N2C(=O)C(NC(=O)/C(=N\O[C@@H](C)C(=O)O)c3nc(N)sc3Cl)C2SC1 (stereo partly drawn) [Ex. 98]
3 | 4 (≈ 6.14 µM) | 4 (≈ 6.14 µM) | 16 (≈ 24.6 µM) | 8 (≈ 12.3 µM) |  |  |  |  | C[C@H](O/N=C(\C(=O)N[C@@H]1C(=O)N2C(C(=O)[O-])=C(C[n+]3ccc(NC4CCNC4)cc3)CS[C@H]12)c1nc(N)sc1Cl)C(=O)O (stereo partly drawn) [Ex. 132]
4 | 4 (≈ 5.91 µM) | 4 (≈ 5.91 µM) | 32 (≈ 47.3 µM) | 32 (≈ 47.3 µM) |  |  |  |  | CNCCCn1ccc2c1ccc[n+]2CC1=C(C(=O)[O-])N2C(=O)C(NC(=O)/C(=N\O[C@H](C)C(=O)O)c3nc(N)sc3Cl)C2SC1 (stereo partly drawn) [Ex. 8]
5 | 2 (≈ 2.89 µM) | 4 (≈ 5.77 µM) | 8 (≈ 11.5 µM) | 8 (≈ 11.5 µM) |  |  |  |  | CNCCCn1c(N)nc2c1ccc[n+]2CC1=C(C(=O)[O-])N2C(=O)[C@@H](NC(=O)/C(=N\O[C@@H](C)C(=O)O)c3nc(N)sc3Cl)C2SC1 (stereo partly drawn) [Ex. 79]
6 | 8 (≈ 10.9 µM) | 4 (≈ 5.44 µM) | 16 (≈ 21.7 µM) | 16 (≈ 21.7 µM) |  |  |  |  | CNCCCn1ccc2c1ccc[n+]2CC1=C(C(=O)[O-])N2C(=O)C(NC(=O)/C(=N\OC(C)(C)C(=O)O)c3nc(N)sc3Br)C2SC1 (stereo not drawn) [Ex. 20]
7 | 4 (≈ 6.26 µM) | 4 (≈ 6.26 µM) | 16 (≈ 25 µM) | 8 (≈ 12.5 µM) |  |  |  |  | CNCCNc1cc[n+](CC2=C(C(=O)[O-])N3C(=O)[C@@H](NC(=O)/C(=N\O[C@@H](C)C(=O)O)c4nc(N)sc4Cl)[C@H]3SC2)cc1 [Ex. 124]
8 |  |  |  |  | 64 (≈ 117 µM) | 64 (≈ 117 µM) | >128 | >128 | CC(C)(O/N=C(\C(=O)N[C@@H]1C(=O)N2C(C(=O)[O-])=C(C[n+]3ccccc3)CS[C@H]12)c1csc(N)n1)C(=O)O [Ref. 1, Ceftazidime, reference compound]
9 | 1 (≈ 1.48 µM) | 8 (≈ 11.8 µM) | 16 (≈ 23.7 µM) | 8 (≈ 11.8 µM) |  |  |  |  | C=C(O/N=C(\C(=O)NC1C(=O)N2C(C(=O)[O-])=C(C[n+]3cccc4c3ccn4CCCNC)CSC12)c1nc(N)sc1Cl)C(=O)O (stereo not drawn) [Ex. 19]
